According to EP2272817A1, “PAI-1 INHIBITOR” (Institute of Medicinal Molecular Design, Inc., priority 2008, dated 2009):
Read-outs that look alike come from different tables or passages of the source.

Target: recombinant human PAI-1 (Homo sapiens, UniProt P05121)
Test: biochemical
[1] = read-out: Inhibition Rate of PAI-1 Activity (%)
[2] = read-out: Inhibition Rate of PAI Activity (%)
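Note: PAI-1 preincubated with compound, then two-chain tPA added, residual tPA activity read with fluorogenic Pyr-Gly-Arg-MCA substrate after 30 min at room temperature.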

recombinant human PAI-1, sequence (P05121 24-402): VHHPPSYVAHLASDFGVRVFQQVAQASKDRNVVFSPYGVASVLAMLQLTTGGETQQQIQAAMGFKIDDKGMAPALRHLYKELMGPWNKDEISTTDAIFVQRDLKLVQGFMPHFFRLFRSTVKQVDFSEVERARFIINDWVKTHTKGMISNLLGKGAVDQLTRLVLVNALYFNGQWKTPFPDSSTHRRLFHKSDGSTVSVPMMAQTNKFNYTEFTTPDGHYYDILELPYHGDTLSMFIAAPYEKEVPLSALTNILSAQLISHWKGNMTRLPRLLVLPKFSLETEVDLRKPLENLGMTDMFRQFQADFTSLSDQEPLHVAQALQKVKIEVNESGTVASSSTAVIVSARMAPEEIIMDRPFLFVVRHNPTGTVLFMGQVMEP

| inhibition at 5 µM [1] | inhibition at 10 µM [1] | inhibition at 25 µM [1] | inhibition at 5 µM [2] | inhibition at 10 µM [2] | inhibition at 25 µM [2] | SMILES |
| --- | --- | --- | --- | --- | --- | --- |
| 59% | 87% | 98% |  |  |  | CC(C)(C)c1ccc(Oc2cc(-c3ccc(OC(F)(F)F)cc3)ccc2OC(F)(F)C(=O)O)cc1 [Compound 120] |
| 29% | 53% | 86% |  |  |  | O=C(O)C(=O)N(CCCc1ccccc1)c1ccc(-c2ccc(OC(F)(F)F)cc2)cc1 [Compound 224] |
| 59% | 86% | 85% |  |  |  | Cc1cc(N(Cc2ccc(C(C)(C)C)cc2)C(=O)C(=O)O)ccc1-c1ccc(OC(F)(F)F)cc1 [Compound 184] |
| 75% | 88% | 84% |  |  |  | CC(C)(C)c1ccc(CN(C(=O)C(=O)O)c2ccc(N3CCOCC3)c(-c3ccc(OC(F)(F)F)cc3)c2)cc1 [Compound 216] |
| 7% | 15% | 38% |  |  |  | O=C(O)C(=O)N(Cc1ccc(F)cc1)c1ccc(-c2ccc(OC(F)(F)F)cc2)cc1 [Compound 155] |
| 77% | 93% | > 99% |  |  |  | CC(C)(C)c1ccc(-c2ccc(Oc3ccc(-c4ccc(OC(F)(F)F)cc4)cc3CCC(=O)O)c(CCC(=O)O)c2)cc1 [Compound 541] |
| 51% | 87% | 94% |  |  |  | CC(C)(C)c1ccc(Oc2cccc(-c3ccc(OC(F)(F)F)cc3)c2/C=C/C(=O)O)cc1 [Compound 93] |
| 46% | 87% | 95% |  |  |  | CC(C)(C)c1ccc(Oc2cc(Oc3ccc(OC(F)(F)F)cc3)ccc2/C=C/C(=O)O)cc1 [Compound 89] |
| 27% | 50% | 88% |  |  |  | O=C(O)C(=O)N(CCCCc1ccccc1)c1ccc(-c2ccc(OC(F)(F)F)cc2)cc1 [Compound 225] |
| 35% | 80% | 90% |  |  |  | CC(C)(C)c1ccc(CN(C(=O)C(=O)O)c2ccc(-c3ccc(OC(F)(F)F)cc3)cc2OC(F)(F)F)cc1 [Compound 151] |
| 58% | 86% | 86% |  |  |  | CC(C)(C)c1ccc(CN(C(=O)C(=O)O)c2ccccc2Sc2ccc(OC(F)(F)F)cc2)cc1 [Compound 631] |
| 39% | 70% | 94% |  |  |  | CCCOc1ccc(N(Cc2ccccc2)C(=O)C(=O)O)cc1-c1ccc(OC(F)(F)F)cc1 [Compound 210] |
| 44% | 79% | 84% |  |  |  | CC(C)(C)c1ccc(CN(C(=O)C(=O)O)c2ccc(-c3ccc(OC(F)(F)F)cc3)c(C(F)(F)F)c2)cc1 [Compound 166] |
|  | 5% | 52% |  |  |  | Cc1ccc(-c2ccc(N(Cc3ccc(C(C)(C)C)cc3)C(=O)C(=O)O)cc2)cc1 [Compound 141] |
| 64% | 87% | 95% |  |  |  | CCC(Oc1ccc(-c2ccc(OC(F)(F)F)cc2)cc1Oc1ccc(C(C)(C)C)cc1)C(=O)O (stereo not drawn) [Compound 114] |
|  |  |  | 22% | 53% | 97% | O=C(O)CCc1cc(-c2ccc(OC(F)(F)F)cc2)ccc1OCc1cccc(C(F)(F)F)c1 [Compound 58] |
| 14% | 26% | 68% |  |  |  | CSc1ccc(CN(C(=O)C(=O)O)c2ccc(-c3ccc(OC(F)(F)F)cc3)cc2)cc1 [Compound 160] |
| 22% | 49% |  |  |  |  | O=C(O)C(=O)N(Cc1ccc(Cl)cc1)c1ccc(-c2ccc(OC(F)(F)F)cc2)cc1 [Compound 124] |
| 48% | 85% | 97% |  |  |  | CC(C)(C)c1ccc(COc2ccc(-c3ccc(OC(F)(F)F)cc3)cc2COCC(=O)O)cc1 [Compound 107] |

| SMILES | inhibition at 5 µM [1] | inhibition at 10 µM [1] | inhibition at 25 µM [1] | inhibition at 5 µM [2] | inhibition at 10 µM [2] | inhibition at 25 µM [2] |
| --- | --- | --- | --- | --- | --- | --- |
| CC(C)(C)c1ccc(CN(C(=O)C(=O)O)c2ccc(-c3ccc(OC(F)(F)F)cc3)cc2)cc1 [Compound 133] | 80% | 92% |  |  |  |  |
